{"source": "patent US20240398737A1", "about": "“FUNCTIONALIZED LONG-CHAIN HYDROCARBON MONO- AND DI-CARBOXYLIC ACIDS AND DERIVATIVES THEREOF, AND THEIR USE FOR THE PREVENTION OR TREATMENT OF DISEASE” (Espervita Therapeutics, Inc., priority 2021, published 2024)", "key": {"Aurora A": {"molecular_target": "Aurora A (Homo sapiens (Human), UniProt O14965)", "sequence (O14965 whole entry)": "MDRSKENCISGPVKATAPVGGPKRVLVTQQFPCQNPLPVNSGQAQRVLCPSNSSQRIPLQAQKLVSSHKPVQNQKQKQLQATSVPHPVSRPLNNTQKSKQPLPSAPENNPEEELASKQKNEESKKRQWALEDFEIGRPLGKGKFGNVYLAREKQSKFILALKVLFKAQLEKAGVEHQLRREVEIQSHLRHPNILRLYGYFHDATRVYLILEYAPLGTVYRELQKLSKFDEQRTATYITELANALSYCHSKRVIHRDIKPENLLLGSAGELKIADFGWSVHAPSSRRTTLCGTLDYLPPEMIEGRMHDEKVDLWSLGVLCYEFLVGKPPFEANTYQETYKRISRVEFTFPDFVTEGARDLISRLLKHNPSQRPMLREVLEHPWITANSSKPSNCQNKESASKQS", "assay": "Wild type kinase screen: Aurora A", "format": "biochemical", "conditions": "compound at 10 μM, 10 μM ATP, Data 1 and Data 2 duplicates"}, "c-Kit": {"molecular_target": "c-Kit (Homo sapiens (Human), UniProt P10721)", "sequence (P10721 26-976)": "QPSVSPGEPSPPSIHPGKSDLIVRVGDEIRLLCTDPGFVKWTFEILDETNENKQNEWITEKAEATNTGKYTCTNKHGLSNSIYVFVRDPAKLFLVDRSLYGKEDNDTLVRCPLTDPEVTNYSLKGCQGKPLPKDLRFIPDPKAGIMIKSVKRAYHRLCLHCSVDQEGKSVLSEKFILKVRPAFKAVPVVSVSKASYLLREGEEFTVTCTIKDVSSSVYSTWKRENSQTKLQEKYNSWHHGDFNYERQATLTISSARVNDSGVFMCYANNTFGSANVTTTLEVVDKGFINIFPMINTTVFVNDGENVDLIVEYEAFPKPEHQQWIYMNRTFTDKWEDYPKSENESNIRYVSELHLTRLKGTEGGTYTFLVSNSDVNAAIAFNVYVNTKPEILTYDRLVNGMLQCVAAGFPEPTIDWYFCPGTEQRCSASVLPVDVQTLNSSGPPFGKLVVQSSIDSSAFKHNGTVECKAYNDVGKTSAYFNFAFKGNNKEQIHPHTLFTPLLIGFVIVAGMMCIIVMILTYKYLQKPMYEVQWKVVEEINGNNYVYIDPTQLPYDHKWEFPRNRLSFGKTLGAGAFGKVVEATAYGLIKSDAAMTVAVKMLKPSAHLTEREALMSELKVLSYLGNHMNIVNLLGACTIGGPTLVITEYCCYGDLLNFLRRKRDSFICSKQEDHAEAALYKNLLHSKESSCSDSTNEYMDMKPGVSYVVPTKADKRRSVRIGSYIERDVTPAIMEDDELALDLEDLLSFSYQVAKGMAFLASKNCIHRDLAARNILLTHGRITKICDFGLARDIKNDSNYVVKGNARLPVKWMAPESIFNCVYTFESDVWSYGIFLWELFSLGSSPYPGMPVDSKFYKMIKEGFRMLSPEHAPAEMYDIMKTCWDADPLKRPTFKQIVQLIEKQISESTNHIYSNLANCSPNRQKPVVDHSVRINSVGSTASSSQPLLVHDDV", "assay": "Wild type kinase screen: c-Kit", "format": "biochemical", "conditions": "compound at 10 μM, 10 μM ATP, Data 1 and Data 2 duplicates"}, "GSK3b": {"molecular_target": "GSK3b (Homo sapiens (Human), UniProt P49841)", "assay": "Wild type kinase screen: GSK3b", "format": "biochemical", "conditions": "compound at 10 μM, 10 μM ATP, Data 1 and Data 2 duplicates"}, "PIM3": {"molecular_target": "PIM3 (Homo sapiens (Human), UniProt Q86V86)", "assay": "Wild type kinase screen: PIM3", "format": "biochemical", "conditions": "compound at 10 μM, 10 μM ATP, Data 1 and Data 2 duplicates"}, "Human ACC2": {"molecular_target": "Human ACC2 (Homo sapiens (Human), UniProt O00763)", "sequence (O00763 whole entry)": "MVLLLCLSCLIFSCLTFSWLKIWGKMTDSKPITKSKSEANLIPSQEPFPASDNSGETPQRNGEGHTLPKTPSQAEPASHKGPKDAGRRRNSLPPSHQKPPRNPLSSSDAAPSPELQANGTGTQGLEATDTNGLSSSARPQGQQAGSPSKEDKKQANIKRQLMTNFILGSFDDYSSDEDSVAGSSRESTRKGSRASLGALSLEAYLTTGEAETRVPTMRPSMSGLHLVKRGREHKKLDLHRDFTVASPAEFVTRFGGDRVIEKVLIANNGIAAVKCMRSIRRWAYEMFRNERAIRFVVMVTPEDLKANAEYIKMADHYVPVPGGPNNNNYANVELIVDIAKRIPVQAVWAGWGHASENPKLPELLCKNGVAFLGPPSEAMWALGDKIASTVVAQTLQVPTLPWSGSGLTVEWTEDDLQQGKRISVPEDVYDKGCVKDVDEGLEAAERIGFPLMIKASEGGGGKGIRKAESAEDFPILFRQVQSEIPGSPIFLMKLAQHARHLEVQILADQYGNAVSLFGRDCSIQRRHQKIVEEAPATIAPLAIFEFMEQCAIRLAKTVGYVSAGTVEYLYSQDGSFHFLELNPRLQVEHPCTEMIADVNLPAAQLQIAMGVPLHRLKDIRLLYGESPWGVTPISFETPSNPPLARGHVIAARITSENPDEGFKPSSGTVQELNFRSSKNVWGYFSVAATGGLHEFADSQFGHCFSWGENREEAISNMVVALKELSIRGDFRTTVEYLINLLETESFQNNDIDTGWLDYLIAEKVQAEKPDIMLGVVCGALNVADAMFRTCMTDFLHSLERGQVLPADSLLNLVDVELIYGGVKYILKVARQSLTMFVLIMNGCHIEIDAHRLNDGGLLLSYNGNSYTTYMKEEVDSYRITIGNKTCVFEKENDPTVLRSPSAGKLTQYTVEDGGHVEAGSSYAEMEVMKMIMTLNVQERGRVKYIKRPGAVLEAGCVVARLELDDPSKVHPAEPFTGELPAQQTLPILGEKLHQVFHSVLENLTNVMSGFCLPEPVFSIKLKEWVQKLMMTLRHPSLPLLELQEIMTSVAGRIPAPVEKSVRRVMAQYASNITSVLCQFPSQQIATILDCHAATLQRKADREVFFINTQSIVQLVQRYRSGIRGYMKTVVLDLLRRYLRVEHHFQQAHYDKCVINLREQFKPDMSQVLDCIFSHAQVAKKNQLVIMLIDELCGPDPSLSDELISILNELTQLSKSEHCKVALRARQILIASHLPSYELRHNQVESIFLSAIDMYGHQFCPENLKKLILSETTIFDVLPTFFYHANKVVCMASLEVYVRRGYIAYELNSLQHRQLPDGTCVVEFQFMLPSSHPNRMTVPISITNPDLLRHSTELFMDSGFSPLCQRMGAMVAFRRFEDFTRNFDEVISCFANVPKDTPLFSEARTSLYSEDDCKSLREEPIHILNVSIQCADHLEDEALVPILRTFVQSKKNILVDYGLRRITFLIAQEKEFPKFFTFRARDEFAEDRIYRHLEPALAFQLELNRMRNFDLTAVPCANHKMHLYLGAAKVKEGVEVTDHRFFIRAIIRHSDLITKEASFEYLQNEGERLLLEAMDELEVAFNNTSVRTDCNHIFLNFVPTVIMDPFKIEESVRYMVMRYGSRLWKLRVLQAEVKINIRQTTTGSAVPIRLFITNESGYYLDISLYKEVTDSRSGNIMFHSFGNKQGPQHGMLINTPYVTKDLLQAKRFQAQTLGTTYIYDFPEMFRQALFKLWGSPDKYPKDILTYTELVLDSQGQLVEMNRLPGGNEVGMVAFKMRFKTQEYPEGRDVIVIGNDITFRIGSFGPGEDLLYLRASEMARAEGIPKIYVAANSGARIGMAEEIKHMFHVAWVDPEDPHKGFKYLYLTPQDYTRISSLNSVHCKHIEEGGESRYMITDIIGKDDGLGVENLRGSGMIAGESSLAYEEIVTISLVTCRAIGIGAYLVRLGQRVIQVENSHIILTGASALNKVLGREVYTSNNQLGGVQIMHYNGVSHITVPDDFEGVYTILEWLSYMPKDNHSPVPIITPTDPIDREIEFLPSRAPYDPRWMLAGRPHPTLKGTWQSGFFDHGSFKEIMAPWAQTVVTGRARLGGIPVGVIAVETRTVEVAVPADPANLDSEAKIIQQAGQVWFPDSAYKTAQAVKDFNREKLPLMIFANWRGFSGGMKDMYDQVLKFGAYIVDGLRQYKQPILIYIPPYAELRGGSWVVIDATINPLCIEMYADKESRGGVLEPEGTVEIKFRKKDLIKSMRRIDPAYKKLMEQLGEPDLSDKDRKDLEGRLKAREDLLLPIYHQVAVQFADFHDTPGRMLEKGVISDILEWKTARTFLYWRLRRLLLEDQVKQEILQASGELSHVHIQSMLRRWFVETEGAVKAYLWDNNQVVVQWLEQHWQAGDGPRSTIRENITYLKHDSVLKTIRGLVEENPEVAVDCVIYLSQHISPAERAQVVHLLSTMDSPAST", "assay": "ACC2 enzymatic assay (ADP-Glo)", "format": "biochemical", "design": "key to Compound IC50 (M) ACC2: *: No detectable inhibition or compound activity", "conditions": "recombinant human ACC2 1 nM; 10 concentrations from 300 μM; Runs 1-3", "procedure": "Human ACC1 (Cat #50202 Lot #120830) and ACC2 (Cat #50201 Lot #160217) were obtained from BPS Biosciences, San Diego, CA 92121. Human ACC1 had C-terminal flag and His-tags with a MW of 270 KDa after purification from Baculovirus infected Sf9 cell expression system and came as a solution in 50 mM Tris-HCl, pH 8.0, 500 mM NaCl, 10% glycerol, 1 mM DTT, 100 μg/ml FLAG peptide with 70% purity. The stock concentration was 0.25 mg/ml corresponding to 0.926 μM. Human ACC2 was also purified from Baculovirus infected Sf9 expression system. […] The stock concentration was 0.1 mg/ml corresponding to 0.36 μM. The assay buffer for measuring the activity of ACC contained: 30 mM HEPES (pH 7.4), 2 mM MgCl2, 0.01% Brij35, 2 mM DTT, 1% DMSO (solvent for compound). For ACC1 and ACC2 assays, the following concentrations of substrate and cofactors were used: 12 mM NaHCO3, 10 μM acetyl CoA, 10 μM ATP, and 2 mM K-citrate. The recombinant human enzyme was used at 5 nM for ACC1 and 1 nM for ACC2. In brief, enzyme alone in the above buffer without substrate was used for background. All test materials were dissolved in 100% DMSO using acoustic technology (Echo550). The prepared solution was preincubated for 15 min followed by the addition of 5 μL/well of ADP standard. ATP was then added to start the reaction. The assay contents were spun and briefly shaken followed by incubation at room temperature for 1 h. At the end of completion of assay, 5 μL of ADP-Glo was added to each well to stop the reaction. The contents were mixed, spun and incubated at room temperature for 40 min followed by the addition of 10 μL/well of ADP detection reagent. The contents were spun, mixed and covered with plastic to measure luminescence. […] The light generated, measured in a luminometer, correlates to the amount of ADP generated in the ACC assay, which is indicative of ACC activity.\nThe enzyme concentrations for ACC1 and ACC2 were 5 nM and 1 nM, respectively.\nData represent nM or μM ADP produced, % Activity (relative to no inhibitor controls), and curve fits were performed by GraphPad Prism software. The IC50 concentration-response curves were generated for both the ACC1 and ACC2 assays using recombinant human ACC."}, "human ACLY": {"molecular_target": "human ACLY (Homo sapiens (Human), UniProt P53396)", "sequence (P53396 whole entry)": "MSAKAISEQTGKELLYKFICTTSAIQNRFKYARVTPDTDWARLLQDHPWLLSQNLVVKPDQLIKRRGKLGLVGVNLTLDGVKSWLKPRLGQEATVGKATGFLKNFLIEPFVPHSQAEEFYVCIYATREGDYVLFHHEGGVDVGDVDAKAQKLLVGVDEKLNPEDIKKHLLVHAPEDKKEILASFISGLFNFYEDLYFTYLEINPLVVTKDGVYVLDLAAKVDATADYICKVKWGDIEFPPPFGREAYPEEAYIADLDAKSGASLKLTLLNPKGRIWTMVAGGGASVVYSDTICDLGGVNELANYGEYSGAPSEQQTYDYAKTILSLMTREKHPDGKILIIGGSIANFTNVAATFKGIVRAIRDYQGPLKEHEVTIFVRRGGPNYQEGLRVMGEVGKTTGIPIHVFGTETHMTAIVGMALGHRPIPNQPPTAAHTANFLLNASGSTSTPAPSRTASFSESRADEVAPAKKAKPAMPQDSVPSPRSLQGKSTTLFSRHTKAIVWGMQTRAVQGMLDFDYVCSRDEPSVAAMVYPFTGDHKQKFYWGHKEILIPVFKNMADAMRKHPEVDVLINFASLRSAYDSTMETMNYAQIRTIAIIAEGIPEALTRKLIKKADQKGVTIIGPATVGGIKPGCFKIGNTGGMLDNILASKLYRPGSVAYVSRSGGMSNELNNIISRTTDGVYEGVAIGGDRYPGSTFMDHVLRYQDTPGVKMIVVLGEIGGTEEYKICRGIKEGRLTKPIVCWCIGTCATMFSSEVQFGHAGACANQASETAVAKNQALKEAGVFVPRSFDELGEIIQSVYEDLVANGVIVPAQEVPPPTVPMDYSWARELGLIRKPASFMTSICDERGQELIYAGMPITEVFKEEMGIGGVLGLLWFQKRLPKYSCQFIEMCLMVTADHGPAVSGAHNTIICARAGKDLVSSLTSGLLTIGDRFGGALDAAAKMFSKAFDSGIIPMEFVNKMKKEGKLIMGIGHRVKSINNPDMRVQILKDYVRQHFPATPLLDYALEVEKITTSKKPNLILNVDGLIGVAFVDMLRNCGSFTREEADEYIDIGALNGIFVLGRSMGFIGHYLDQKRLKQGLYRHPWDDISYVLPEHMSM", "assay": "ATP-citrate lyase (ACLY) enzymatic assay (ADP-Glo)", "format": "biochemical", "design": "key to Compound IC50 (M) ACLY: *: No detectable inhibition or compound activity", "conditions": "recombinant human ACLY; 10 concentrations from 300 μM; Runs 1-3", "procedure": "ATP citrate lyase was obtained from Sino Biological Inc. Cat #11769-H07B, Lot #LC08DE1701. It was prepared from a DNA sequence encoding the human ACLY (P53396) (Met 1-Met 1101) expressed in Baculovirus-Insect Cells, with a polyhistidine tag at the N-terminus. The recombinant human ACLY consists of 1120 amino acids and has a calculated molecular mass of 123 kDa. It migrates as an approximately 110 kDa band in SDS-PAGE under reducing conditions. The enzyme came as a lyophilized powder in sterile 20 mM Tris, 500 mM NaCl, pH 8.0, 10% glycine. Normally 5%-8% trehalose and mannitol are added as protectants before lyophilization. The recombinant human ACLY from Sino Biological was formulated in 45 mM Tris-HCl, pH 8.0, 124 mM NaCl, 2.4 mM KCl, 18 mM glutathione, 10% glycerol, and 3 mM DTT.\nTo detect ADP produced from ACL assay, the ADP-Glo™ assay format from Promega, Madison, WI, was used, to detect the conversion of ATP to ADP. […] This assay is performed in two steps: i) after the ACL-mediated enzymatic reaction that utilizes ATP and produces ADP, ADP-Glo™ Reagent is added to terminate the kinase reaction and deplete the remaining ATP, and ii) the Kinase Detection Reagent is added to convert ADP to ATP and allow the newly synthesized ATP to be measured using a luciferase/luciferin reaction. The light generated, measured in a luminometer, correlates to the amount of ADP generated in the ACL assay, which is indicative of ACL activity.\nData represent nM or μM ADP produced, % Activity (relative to no inhibitor controls), and curve fits were performed by GraphPad Prism software. The IC50 concentration-response curves were generated for ADPGlo™ using recombinant human ACL from Sino Biologicals Inc."}, "female Wistar Han rats": {"system": "female Wistar Han rats", "assay": "4-day oral gavage toxicity study in female rats", "conditions": "4 days; for Compound-related effects in hematology or coagulation test results / Compound-related mortality, clinical observations, body weight effects, or changes in food consumption: 100 or 300 mg/kg/day oral gavage once daily; for Compound-related macroscopic observations: 100 or 300 mg/kg/day"}}, "note": "“Also recorded” adds a separate entry of the source."}
{"smiles": "CC(C)(CCCCc1ccc(CCCCC(C)(C)C(=O)O)cc1)C(=O)O", "note": "[Compound I-1, 6-[4-(5-carboxy-5-methylhexyl)-phenyl]-2,2-dimethylhexanoic acid]", "values": [{"measurement": "% Enzyme Activity (relative to DMSO controls)", "setting": "Aurora A", "value": 83.92, "unit": "%"}, {"measurement": "% Enzyme Activity (relative to DMSO controls)", "setting": "c-Kit", "value": 81.06, "unit": "%"}, {"measurement": "% Enzyme Activity (relative to DMSO controls)", "setting": "GSK3b", "value": 82.73, "unit": "%"}, {"measurement": "% Enzyme Activity (relative to DMSO controls)", "setting": "PIM3", "value": 83, "unit": "%"}, {"measurement": "Compound IC50 (M) ACC2", "setting": "Human ACC2", "value": "*"}, {"measurement": "Compound IC50 (M) ACLY", "setting": "human ACLY", "value": "*"}, {"measurement": "Adversity of the effects at this dose", "setting": "female Wistar Han rats; 100 mg/kg/day", "value": "nonadverse"}, {"measurement": "Albumin:globulin ratio (clinical chemistry)", "setting": "female Wistar Han rats; 100 mg/kg/day", "value": "minimally higher"}, {"measurement": "Globulin concentration (clinical chemistry)", "setting": "female Wistar Han rats; 100 mg/kg/day", "value": "minimally lower"}, {"measurement": "Adversity of the effects at this dose", "setting": "female Wistar Han rats; 300 mg/kg/day", "value": "adverse"}, {"measurement": "Albumin:globulin ratio (clinical chemistry)", "setting": "female Wistar Han rats; 300 mg/kg/day", "value": "minimally higher"}, {"measurement": "Globulin concentration (clinical chemistry)", "setting": "female Wistar Han rats; 300 mg/kg/day", "value": "minimally lower"}, {"measurement": "Kidney microscopic findings", "setting": "female Wistar Han rats; 300 mg/kg/day", "value": "tubular degeneration/necrosis, tubular regeneration, and increased mitoses"}, {"measurement": "Compound-related effects in hematology or coagulation test results", "setting": "female Wistar Han rats", "value": "No"}, {"measurement": "Compound-related mortality, clinical observations, body weight effects, or changes in food consumption", "setting": "female Wistar Han rats", "value": "No"}, {"measurement": "Compound-related macroscopic observations", "setting": "female Wistar Han rats", "value": "No"}, {"measurement": "Liver microscopic findings", "setting": "female Wistar Han rats; >100 mg/kg/day (so in the source)", "value": "increase in mitoses in hepatocytes"}]}
{"smiles": "CC(C)(CCCCc1cccc(CCCCC(C)(C)C(=O)O)c1)C(=O)O", "note": "[Compound I-32, 6-[3-(5-carboxy-5-methylhexyl)-phenyl]-2,2-dimethylhexanoic acid]", "values": [{"measurement": "% Enzyme Activity (relative to DMSO controls)", "setting": "Aurora A", "value": 93.33, "unit": "%"}, {"measurement": "% Enzyme Activity (relative to DMSO controls)", "setting": "c-Kit", "value": 71.52, "unit": "%"}, {"measurement": "% Enzyme Activity (relative to DMSO controls)", "setting": "GSK3b", "value": 72.67, "unit": "%"}, {"measurement": "% Enzyme Activity (relative to DMSO controls)", "setting": "PIM3", "value": 86.73, "unit": "%"}, {"measurement": "Compound IC50 (M) ACC2", "setting": "Human ACC2", "value": "*"}, {"measurement": "Compound IC50 (M) ACLY", "setting": "human ACLY", "value": "*"}, {"measurement": "Adversity of the effects at this dose", "setting": "female Wistar Han rats; 300 mg/kg/day", "value": "nonadverse"}, {"measurement": "Albumin:globulin ratio (clinical chemistry)", "setting": "female Wistar Han rats; 300 mg/kg/day", "value": "minimally higher"}, {"measurement": "Globulin concentration (clinical chemistry)", "setting": "female Wistar Han rats; 300 mg/kg/day", "value": "minimally lower"}, {"measurement": "Liver microscopic findings", "setting": "female Wistar Han rats; 300 mg/kg/day", "value": "increase in mitoses in hepatocytes; also recorded: periportal hepatocyte vacuolation"}, {"measurement": "Serum urea nitrogen concentration", "setting": "female Wistar Han rats; 300 mg/kg/day, considered potentially compound-related", "value": "Minimally lower"}, {"measurement": "Compound-related effects in hematology or coagulation test results", "setting": "female Wistar Han rats", "value": "No"}, {"measurement": "Compound-related mortality, clinical observations, body weight effects, or changes in food consumption", "setting": "female Wistar Han rats", "value": "No"}, {"measurement": "Compound-related macroscopic observations", "setting": "female Wistar Han rats", "value": "No"}]}
